Each block holds one compound with its values, some of them ahead of it.
Key:
[1] = Critical wavelength (λcrit), approximate in-house measurement; assay type: physicochemical
From the text: As the precise test for critical wavelength was unable to be replicated exactly by the inventors due to the need for specialist equipment and a specific calibration of the spectrophotometer, these values are only approximate to a degree. […] This represents a highly useful result and so, compounds based around this benzoyl substitution pattern shown, are especially preferred.

[2] = UV absorption properties (λmax, molar extinction coefficient ε, efficiency E 1%, 1 cm); assay type: physicochemical
[3] = Table 1, covalently coupled compounds
[4] = values in order of the λmax values
[5] = Table 1, values in order of the λmax values
[6] = Table 2, values in order of the λmax values
[7] = Table 6A, N-isobutyl-C3-benzoyl compounds
[8] = Table 7, values in order of the λmax values
[9] = Table 13A, miscellaneous compounds

Structure (SMILES): CC(C)CN1C=C(C(=O)CC/C=C/c2ccc(COc3ccc(C(=O)CC(=O)c4ccc(C(C)(C)C)cc4)cc3)cc2)C(C)(C)CC1
λcrit [1, 3]: 375 nm

Structure (SMILES): CC1(C)CCN(C(C)(C)C)C=C1C(=O)/C=C/c1c2ccccc2c(/C=C/C(=O)C2=CN(C(C)(C)C)CCC2(C)C)c2ccccc12
λcrit ([1]; Table 13B): 389 nm

Structure (SMILES): CC1(C)CCN(c2ccc(C(C)(C)C)cc2)C=C1C(=O)Nc1ccccc1 [Compound 193, 1-(4-(tert-butyl)phenyl)-4,4-dimethyl-N-phenyl-1,4,5,6-tetrahydropyridine-3-carboxamide]
UV λmax [2]: 324 nm
ε (molar extinction coefficient) [2, 4]: 35759 M⁻¹ cm⁻¹

Structure (SMILES): CC1(C)CCN(c2cccc3ccccc23)C=C1C(=O)C(F)(F)F [Compound 198, 1-(4,4-dimethyl-1-(naphthalen-1-yl)-1,4,5,6-tetrahydropyridine-3-yl)-2,2,2-trifluoroethanone]
UV λmax [2]: 325 nm

Structure (SMILES): Cc1ccc(N2C=CC(C)(C)C(C(=O)C(F)(F)F)=C2)cc1 [Compound 199, 1-(4,4-dimethyl-1-(p-tolyl)-1,4-dihydropyridin-3-yl)-2,2,2-trifluoroethanone]
UV λmax [2]: 388 nm
ε (molar extinction coefficient) [2, 4]: 14911 M⁻¹ cm⁻¹

Structure (SMILES): Cc1nn(C)c(N2C=CC(C)(C)C=C2)c1C(=O)C(F)(F)F [Compound 200, 1-(5-(4,4-dimethylpyridin-1(4H)-yl)-1,3-dimethyl-1 H-pyrazol-4-yl)-2,2,2-trifluoroethanone]
UV λmax [2]: 253 nm
ε (molar extinction coefficient) [2, 4]: 10016 M⁻¹ cm⁻¹

Structure (SMILES): CC1(C)CCN(c2ccc(C(C)(C)C)cc2)C=C1C(=O)C1c2ccccc2-c2ccccc21 [Compound 205, (1-(4-(tert-butyl)phenyl)-4,4-dimethyl-1,4,5,6-tetrahydropyridin-3-yl)(9H-fluoren-9-yl)methanone]
UV λmax [2]: 339 nm
ε (molar extinction coefficient) [2, 4]: 30745 M⁻¹ cm⁻¹

Structure (SMILES): COc1ccc(C(=O)C(CCCCCC(=O)C2=CN(CC(C)C)CCC2(C)C)C(=O)c2ccc(C(C)(C)C)cc2)cc1 (stereo not drawn) [drawing 45]
λmax [2, 3]: 306 nm

Structure (SMILES): C=CCCC(=O)C1=CN(CC(C)C)CCC1(C)C [drawing 46]
λmax [2, 3]: 308 nm
Ε (1%, 1 cm) [2, 5]: 1417
ε [2, 5]: 35000 M⁻¹ cm⁻¹

Structure (SMILES): CC(C)CN1C=C(C(=O)c2ccc(C(C)(C)C)cc2)C(C)(C)CC1 [drawing 51]
λmax ([2]; Table 2, compounds 11-13): 317 nm
Ε (1%, 1 cm) [2, 6]: 581
ε [2, 6]: 19000 M⁻¹ cm⁻¹

Structure (SMILES): COc1ccc(C(=O)CC(=O)C2=CN(CC(C)C)CCC2(C)C)cc1 [drawing 53]
λcrit ([1]; Table 2, compounds 11-13): 389 nm

Structure (SMILES): CC(C)CN1C=C(C(=O)c2ccc(-c3ccccc3)cc2)C(C)(C)CC1 [drawing 86]
E (1%, 1 cm) ([2]; Table 6A): 509
ε ([2]; Table 6A): 18000 M⁻¹ cm⁻¹
λmax [2, 7]: 320 nm

Structure (SMILES): CC(C)CN1C=C(C(=O)c2ccccc2)C(C)(C)CC1 [drawing 87]
E (1%, 1 cm) ([2]; Table 6A): 701
ε ([2]; Table 6A): 19000 M⁻¹ cm⁻¹
λmax [2, 7]: 316 nm

Structure (SMILES): C=C/C=C/CC(=O)C1=CN(CC(C)C)CCC1(C)C [drawing 109]
λmax ([2]; Table 7, unsaturated compounds): 311 nm
E (1%, 1 cm) [2, 8]: 1053
ε [2, 8]: 27500 M⁻¹ cm⁻¹

Structure (SMILES): C=CCC(=O)C1=CN(CC(C)C)CCC1(C)C [drawing 110]
λmax ([2]; Table 7, unsaturated compounds): 310 nm
E (1%, 1 cm) [2, 8]: 1102
ε [2, 8]: 27000 M⁻¹ cm⁻¹

Structure (SMILES): CC(C)CN1C=C(C(=O)/C=C/C=Cc2ccccc2)C(C)(C)CC1 [drawing 115]
λcrit ([1]; Table 7): 387 nm

Structure (SMILES): C=C(C)C(=O)C1=CN(CC(C)C)CCC1(C)C [drawing 116]
λmax ([2]; Table 7, unsaturated compounds): 310 nm
E (1%, 1 cm) [2, 8]: 806
ε [2, 8]: 18950 M⁻¹ cm⁻¹

Structure (SMILES): CC1(C)C=CN(c2ccccc2)CC1 [drawing 121]
E (1%, 1 cm) ([2]; Table 8a): 1205
ε ([2]; Table 8a): 22550 M⁻¹ cm⁻¹
λmax ([2]; Table 8a, N-phenyl compounds): 278 nm

Structure (SMILES): COc1ccc(N2C=CC(C)(C)CC2)cc1 [drawing 126]
λmax ([2]; Table 8a, N-phenyl compounds): 275 nm

Structure (SMILES): CC(C)CN1C=C(S(=O)(=O)c2ccccc2)C(C)(C)CC1 [drawing 173]
E (1%, 1 cm) ([2]; Table 13A): 359
ε ([2]; Table 13A): 11000 M⁻¹ cm⁻¹
λmax [2, 9]: 285 nm

The remaining lines, values ahead:

λcrit ([1]; Table 13B): 365 nm
Structure (SMILES): CCCN(CCC)c1ccc(C(=O)C2=CN(C(C)(C)C)CCC2(C)C)cc1

λcrit ([1]; Table 13B): 390 nm
Structure (SMILES): CC1(C)CCN(c2ccccc2)C=C1C(=O)/C=C/c1ccc(/C=C/C(=O)C2=CN(c3ccccc3)CCC2(C)C)cc1

λcrit ([1]; Table 13B): 365 nm
Structure (SMILES): CC1(C)CCN(C(C)(C)C)C=C1C(=O)c1ccc(N2CCCN(c3ccc(C(=O)C4=CN(C(C)(C)C)CCC4(C)C)cc3)CC2)cc1

UV λmax [2]: 313 nm
ε (molar extinction coefficient) [2, 4]: 55779 M⁻¹ cm⁻¹
Structure (SMILES): CC1(C)CCN(C(C)(C)C)C=C1C(=O)Nc1cccc(NC(=O)C2=CN(C(C)(C)C)CCC2(C)C)c1 [Compound 188, N,N′-(1,3-phenylene)bis(1-(tert-butyl)-4,4-dimethyl-1,4,5,6-tetrahydropyridine-3-carboxamide)]

UV λmax [2]: 314 nm
ε (molar extinction coefficient) [2, 4]: 51743 M⁻¹ cm⁻¹
Structure (SMILES): Cc1ccc(N2C=C(C(=O)Nc3ccc(C)c(NC(=O)C4=CN(C(C)(C)C)CCC4(C)C)c3)C(C)(C)CC2)cc1 [Compound 190, 1-(tert-butyl)-N-(5-(4,4-dimethyl-1-(p-tolyl)-1,4,5,6-tetrahydropyridine-3-carboxamido)-2-methylphenyl)-4,4-dimethyl-1,4,5,6-tetrahydropyridine-3-carboxamide]

UV λmax [2]: 331 nm
ε (molar extinction coefficient) [2, 4]: 68095 M⁻¹ cm⁻¹
Structure (SMILES): CC1(C)CCN(c2ccc(C(C)(C)C)cc2)C=C1C(=O)Nc1ccc(NC(=O)C2=CN(c3ccc(C(C)(C)C)cc3)CCC2(C)C)cc1 [Compound 191, N,N′-(1,4-phenylene)bis(1-(4-(tert-butyl)phenyl)-4,4-dimethyl-1,4,5,6-tetrahydropyridine-3-carboxamide)]

UV λmax [2]: 323 nm
ε (molar extinction coefficient) [2, 4]: 33948 M⁻¹ cm⁻¹
Structure (SMILES): Cc1ccc(N2C=C(C(=O)Nc3ccccc3)C(C)(C)CC2)cc1 [Compound 192, 4,4-dimethyl-N-phenyl-1-(p-tolyl)-1,4,5,6-tetrahydropyridine-3-carboxamide]

UV λmax [2]: 337 nm
ε (molar extinction coefficient) [2, 4]: 42723 M⁻¹ cm⁻¹
Structure (SMILES): CC1(C)CCN(c2ccc(C(C)(C)C)cc2)C=C1C(=O)C(F)(F)F [Compound 194, 1-(1-(4-(tert-butyl)phenyl)-4,4-dimethyl-1,4,5,6-tetrahydropyridin-3-yl)-2,2,2-trifluoroethanone]

UV λmax [2]: 339 nm
ε (molar extinction coefficient) [2, 4]: 24235 M⁻¹ cm⁻¹
Structure (SMILES): COc1ccc(N2C=C(C(=O)C(F)(F)F)C(C)(C)CC2)cc1 [Compound 195, 2,2,2-trifluoro-1-(1-(4-methoxyphenyl)-4,4-dimethyl-1,4,5,6-tetrahydropyridin-3-yl)ethanone]

UV λmax [2]: 354 nm
ε (molar extinction coefficient) [2, 4]: 32744 M⁻¹ cm⁻¹
Structure (SMILES): CN(C)c1ccc(N2C=C(C(=O)C(F)(F)F)C(C)(C)CC2)cc1 [Compound 196, 1-(1-(4-(dimethylamino)phenyl)-4,4-dimethyl-1,4,5,6-tetrahydropyridin-3-yl)-2,2,2-trifluoroethanone]

UV λmax [2]: 337 nm
ε (molar extinction coefficient) [2, 4]: 43513 M⁻¹ cm⁻¹
Structure (SMILES): Cc1ccc(N2C=C(C(=O)C(F)(F)F)C(C)(C)CC2)cc1 [Compound 197, 1-(4,4-dimethyl-1-(p-tolyl)-1,4,5,6-tetrahydropyridin-3-yl)-2,2,2-trifluoroethanone]

UV λmax [2]: 337 nm
ε value ([2]; unit not given): approximately 18000
ε (molar extinction coefficient) [2, 4]: 17793 M⁻¹ cm⁻¹
Structure (SMILES): CC1(C)CCN(c2ccc(C(C)(C)C)cc2)C=C1C(=O)C(c1ccccc1)c1ccccc1 [Compound 204, 1-(1-(4-(tert-butyl)phenyl)-4,4-dimethyl-1,4,5,6-tetrahydropyridine-3-yl)-2,2-diphenylethanone]

λmax ([2]; Table 2, compounds 11-13): 319 nm
Structure (SMILES): COc1ccc(C(=O)C2=CN(CC(C)C)CCC2(C)C)cc1 [drawing 52]

λcrit ([1]; Table 5): 385 nm
Structure (SMILES): CC1(C)CCN(C(C)(C)C)C=C1C(=O)CC(=O)c1ccccc1 [drawing 76]

E (1%, 1 cm) ([2]; Table 6A): 642
ε ([2]; Table 6A): 22500 M⁻¹ cm⁻¹
λmax [2, 7]: 318 nm
Structure (SMILES): CC(C)CN1C=C(C(=O)c2ccc(Br)cc2)C(C)(C)CC1 [drawing 84]

E (1%, 1 cm) ([2]; Table 6A): 831
ε ([2]; Table 6A): 22000 M⁻¹ cm⁻¹
λmax [2, 7]: 320 nm
Structure (SMILES): CC(C)CN1C=C(C(=O)c2ccc3c(c2)CCO3)C(C)(C)CC1 [drawing 85]

E (1%, 1 cm) ([2]; Table 6A): 547
ε ([2]; Table 6A): 20000 M⁻¹ cm⁻¹
λmax [2, 7]: 320 nm
Structure (SMILES): CC(C)CN1C=C(C(=O)c2ccc(C(=O)C3=CN(CC(C)C)CCC3(C)C)cc2)C(C)(C)CC1 [drawing 88]

E (1%, 1 cm) ([2]; Table 6A): 502
ε ([2]; Table 6A): 33000 M⁻¹ cm⁻¹
λmax [2, 7]: 316 nm
Structure (SMILES): CC(C)CN1C=C(C(=O)c2cc(C(=O)C3=CN(CC(C)C)CCC3(C)C)cc(C(=O)C3=CN(CC(C)C)CCC3(C)C)c2)C(C)(C)CC1 [drawing 89]

E (1%, 1 cm) ([2]; Table 6A): 200
ε ([2]; Table 6A): 7500 M⁻¹ cm⁻¹
λmax [2, 7]: 295 nm
Structure (SMILES): CC(C)CN1C=C(C(=O)c2ccc(C(=O)c3ccccc3)cc2)C(C)(C)CC1 [drawing 90]

E (1%, 1 cm) ([2]; Table 6A): 286
ε ([2]; Table 6A): 9500 M⁻¹ cm⁻¹
λmax [2, 7]: 313 nm
Structure (SMILES): COc1ccc(C(=O)C2=CN(CC(C)C)CCC2(C)C)c(OC)c1 [drawing 91]

λmax ([2]; Table 7, unsaturated compounds): 314 nm
E (1%, 1 cm) [2, 8]: 757
ε [2, 8]: 19000 M⁻¹ cm⁻¹
Structure (SMILES): CC(C)=CC(=O)C1=CN(CC(C)C)CCC1(C)C [drawing 107]

λmax ([2]; Table 7, unsaturated compounds): 306 nm
E (1%, 1 cm) [2, 8]: 574
ε [2, 8]: 14500 M⁻¹ cm⁻¹
Structure (SMILES): C=C(C)CC(=O)C1=CN(CC(C)C)CCC1(C)C [drawing 108]

λcrit ([1]; Table 7): 357 nm
Structure (SMILES): CC(C)CN1C=C(C(=O)C(C#N)=C(c2ccccc2)c2ccccc2)C(C)(C)CC1 [drawing 118]

E (1%, 1 cm) ([2]; Table 8a): 866
ε ([2]; Table 8a): 16000 M⁻¹ cm⁻¹
λmax ([2]; Table 8a, N-phenyl compounds): 285 nm
Structure (SMILES): CC1(C)C=CN(c2ccccc2)C=C1 [drawing 125]

λmax [2, 9]: 291 nm
Structure (SMILES): CCC(=O)C1=CN(CC(C)C)C(=O)CC1(C)C [drawing 169]

λmax [2, 9]: 308 nm
Structure (SMILES): CC(C)CN1C=C(C(=O)CCC(=O)O)C(C)(C)CC1 [drawing 171]

E (1%, 1 cm) ([2]; Table 13A): 716
ε ([2]; Table 13A): 26000 M⁻¹ cm⁻¹
λmax [2, 9]: 314 nm
Structure (SMILES): CC(C)CN1C=C(C(=O)C(c2ccccc2)c2ccccc2)C(C)(C)CC1 [drawing 172]

— patent US10519111B2, “UV absorbing compounds, compositions comprising same and uses thereof” (CORAL SUNSCREEN PTY LTD, priority 2013, dated 2019)
